Source: PubChem BioAssay (NCI)
Values joined by “and” are separate entries in the source; they are usually repeats but may differ in a detail not shown here. Equal values may be shown once.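 Growth conditions: 96-well plates. Treatment: test compound, 48 hours, 5 concentrations. Analysis: linear interpolation between bracketing concentrations; unreached endpoints set to highest concentration. Here, GI50 denotes the concentration required for 50% inhibition of growth. TGI: concentration producing complete growth inhibition.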

Key:
Assay in all cases: NCI anticancer screen, dose series, 48 h
SF-268 CNS = test system: SF-268 CNS
UO-31 renal = test system: UO-31 renal
NCI-H226 lung = test system: NCI-H226 lung
ACHN renal = test system: ACHN renal
NCI/ADR-RES ovarian = test system: NCI/ADR-RES ovarian
K-562 leukemia = test system: K-562 leukemia
MDA-MB-231 breast = test system: MDA-MB-231 breast
UACC-62 melanoma = test system: UACC-62 melanoma
786-0 renal = test system: 786-0 renal
HOP-92 NSCLC = test system: HOP-92 NSCLC

Structure (SMILES) | TGI (SF-268 CNS) [µM] | GI50 (UO-31 renal) [µM] | TGI (UO-31 renal) | GI50 (NCI-H226 lung) [µM] | TGI (NCI-H226 lung) | GI50 (ACHN renal) [µM] | TGI (ACHN renal) | GI50 (NCI/ADR-RES ovarian) [µM] | TGI (NCI/ADR-RES ovarian) | GI50 (K-562 leukemia) [µM] | TGI (K-562 leukemia) | GI50 (MDA-MB-231 breast) [µM] | TGI (MDA-MB-231 breast) | GI50 (UACC-62 melanoma) [µM] | TGI (UACC-62 melanoma) | GI50 (786-0 renal) [µM] | TGI (786-0 renal) | TGI (HOP-92 NSCLC) [µM] | GI50 (SF-268 CNS) [µM] | GI50 (HOP-92 NSCLC) [µM]
O=C1/C(=C/c2ccc(O)c([N+](=O)[O-])c2)CCC/C1=C\c1ccc(O)c([N+](=O)[O-])c1 | 19.9 | 20.7 | 25.5 µM and 39.5 µM | 33.7 | 24.7 µM and > 100 µM | 20.4 | 14.8 µM and 38.5 µM | 16.3 | 50 µM and 41.7 µM | 20.9 | 50 µM and 64.4 µM | 16.4 | 50 µM and 39.3 µM | 14.1 | 15.5 µM and 37.2 µM | 43.7 | 25.5 µM and > 100 µM |  |  | 
C=CC[C@H]1C[C@@]2(C)OC[C@H](C(C)C)N2C1=O | > 100 |  |  |  |  |  | > 100 µM |  |  |  | > 100 µM |  |  |  | > 100 µM |  | > 100 µM | > 100 |  | 
FC(F)(F)c1cccc(COCCN2CCN(Cc3cccc(C(F)(F)F)c3)CC2)c1 | 30.3 |  | 24.9 µM |  | 35.8 µM |  | 29.1 µM |  | 39.1 µM |  | > 100 µM |  | 44.7 µM |  | 28.6 µM |  | 29.5 µM |  |  | 
CC1Cc2c(N)nc(NN)nc2NC1=O (stereo not given) |  |  | > 100 µM |  | > 100 µM |  | > 100 µM |  |  |  | > 100 µM |  |  |  | > 100 µM |  | > 100 µM |  |  | 
CN(C)CC(/C(Cc1ccccc1)=N\NC(=O)c1ccncc1)c1ccccc1 (stereo not given) | > 100 |  |  |  | > 100 µM |  | 97.7 µM |  |  |  | > 100 µM |  |  |  | > 100 µM |  | > 100 µM | > 100 |  | 
O=C1CCCCCCCCCCC(=O)C2CCOCCOCCOCCC1Cc1cccc(n1)C2 | > 100 |  | > 100 µM |  | > 100 µM |  | > 100 µM |  |  |  | > 100 µM |  |  |  | > 100 µM |  | > 100 µM |  |  | 
Cc1cc(O)c(C(=O)CC2(O)C(=O)Nc3c(Cl)cc(Cl)cc32)c(=O)o1 (stereo not given) | > 100 |  | > 100 µM |  | > 100 µM |  | > 100 µM |  |  |  | > 100 µM |  |  |  | > 100 µM |  | > 100 µM | > 100 |  | 
COc1ccc2nc(-c3ccccc3)cc(Nc3ccc(C(C)=O)cc3)c2c1 | 31 | 6.2 | > 100 µM | 0.94 | 3.46 µM | 2.54 | 9.79 µM | 2.78 | 7.29 µM | 1.14 | 11.7 µM | 0.0369 | 2.13 µM | 2.31 | 5.13 µM | 1.31 | 3.54 µM |  | 7.51 | 
c1nc2cscc2c2cscc12 | > 100 |  | > 100 µM |  | > 100 µM |  | > 100 µM |  |  |  | > 100 µM |  |  |  | > 100 µM |  | > 100 µM | > 100 |  | 
Clc1ccc(-n2nnc(C3=NCCCN3)c2-c2ccccc2)cc1 | > 100 |  | > 100 µM |  | > 100 µM |  | > 100 µM |  |  |  | > 100 µM |  |  |  | > 100 µM |  | > 100 µM | > 100 |  | 
COC(=O)/C=C(C)/C=C/c1cc(C(C)=O)c(C)o1 | > 100 |  | > 100 µM |  |  |  | > 100 µM |  |  |  | > 100 µM |  |  |  | > 100 µM |  | > 100 µM | > 100 |  | 
N/N=C(\CC1OC(=O)c2ccccc21)c1ccco1 (stereo not given) | > 100 |  | > 100 µM |  | > 100 µM |  | > 100 µM |  |  |  | > 100 µM |  |  |  | > 100 µM |  | 0.164 µM | > 100 |  | 
CC(=O)[CH-]C(=O)c1ccccc1.CC(=O)[CH-]C(=O)c1ccccc1.CC(=O)[CH-]C(=O)c1ccccc1.[Tl+3] | > 100 | 30.2 | > 100 µM | 35.7 | > 100 µM | 51.1 | > 100 µM |  |  | 2.32 | > 100 µM |  |  | 32 | > 100 µM | 49.2 | > 100 µM | > 85.7 | 29.3 | 40.6
C=C1C(=O)O[C@@H]2C1C[C@@H](O)/C(C)=C/C/C=C(\C)CCC[C@H](C)[C@H]2OC(C)=O (stereo not given in full) | > 100 | 15.6 | 39.4 µM | 23.2 | 44.3 µM | 21.3 | 42.6 µM | 32.3 | > 100 µM |  |  | 24.3 | 49.6 µM | 22 | 43.5 µM | 18.7 | 34.3 µM |  | 33.9 | 
Cn1nc(-c2ccccc2)c(N=[N+]=[N-])cc1=O | > 100 |  | > 100 µM |  | > 100 µM |  | > 100 µM |  |  |  | > 100 µM |  |  |  | > 100 µM |  | > 100 µM |  |  | 
S=c1[nH]c(=S)c2sc(=S)n(-c3ccccc3)c2[nH]1 | > 100 |  | > 100 µM |  | > 100 µM |  | > 100 µM |  |  |  | > 100 µM |  |  |  | > 100 µM |  | > 100 µM | > 100 |  | 
O=[N+]([O-])c1ccc(Sc2c3ccccc3nc3ccccc23)cc1 | > 100 |  | > 100 µM |  | > 100 µM |  | > 100 µM |  |  |  | > 100 µM |  |  |  | > 100 µM |  | > 100 µM |  |  | 
CC(=O)OCSc1ncnc2c1ncn2CN1CCOCC1 | > 100 |  | > 100 µM |  | > 100 µM |  | > 100 µM |  |  |  | > 100 µM |  |  |  | > 100 µM |  | > 100 µM | > 100 |  | 
CC(=O)Nc1nc(SCc2ccccc2)c2ncn(C(C)=O)c2n1 | > 100 | 43.5 | > 100 µM | 45.4 | > 100 µM | 61.6 | > 100 µM | 99.3 | > 100 µM | > 100 | > 100 µM | 77.3 | > 100 µM | 61.8 | > 100 µM | 72.5 | > 100 µM |  | > 100 | 
CC(C)=CC(=O)Oc1ccc([N+](=O)[O-])cc1 | > 100 |  | > 100 µM |  | > 100 µM |  | > 100 µM |  |  |  | > 100 µM |  |  |  | > 100 µM |  | > 100 µM | > 100 |  | 
N#CCc1ccc(C(C#N)/C(CCCC(=O)Nc2cccc([N+](=O)[O-])c2)=N\NC(=O)NN)cc1 (stereo not given) | > 100 |  | > 100 µM |  | > 100 µM |  | > 100 µM |  |  |  | > 100 µM |  |  |  | > 100 µM |  | > 100 µM | > 100 |  | 
